The record followed here is US20250066370A1, “BICYCLIC TRIAZINE DERIVATIVES FOR THE TREATMENT OF CANCER” (DEUTSCHES KREBSFORSCHUNGSZENTRUM, priority 2022, published 2025).

Some results are limits rather than exact numbers.

For assay [1], the target named is CDK12 (Homo sapiens (Human), UniProt Q9NYV4). Briefly: CDK12 nuclear protein level: immunofluorescence/high content analysis in CAL-120 cells. The assay is classed as cell-based. The settings on record: 24 h, nuclear CDK12 staining intensity, median, read-out: CDK12 degradation IF, DC50 - [mol/l] (median). The protocol:
In the context of the present invention, the term “DC50 CDK12” refers to the DC50 values obtained according to the assay described in this section (7) herein below, i.e. the DC50 values for the degradation of CDK12.
(§1) CAL-120 human breast cancer cells (DSMZ ACC 459) are seeded in 1536-well microtiter plates (800 cells per well) containing 50 nanoL of compounds in Dose-Response. Control wells received DMSO or Example 4. Plates are then incubated for 24 h at 37° C. in an humidified incubator and fixed with 4% PFA for 10 min. Then immunofluorescence (IF) against CDK12 (CellSignalling CDK12 Antibody #11973, rabbit, 1:100 dilution) is performed using standard IF protocols. Cells are then stained with Hoechst 33342 (Life Technologies, H-1399, 0.1 microg/ml) and imaged on an automated confocal microscopy system (e.g. Perkin Elmer Opera Phenix). Nuclear and cytoplasmic intensity as well as the nuclear/cytoplasmic intensity ratio is determined by automated image analysis using custom generated scripts (MetaXpress). Data is then transferred to Genedata Screener software, normalized to DMSO and control and DC50 values (degrading concentration to achieve 50% reduction of nuclear CDK12 staining intensity relative to controls) are reported.

The subject of assay [2] is CAL-120, human breast adenocarcinoma cells. Description: Proliferation assay CAL-120 (crystal violet). The assay is classed as cell-based. The settings on record: 96 h, CAL-120 parental cells, 4 days, median, read-out: Prolif-CAL-120, IC50 - [mol/l] (median). As for the experimental part: (§2) Human tumour cells were originally obtained from the American Type Culture Collection (ATCC), or from the Deutsche Sammlung von Mikroorganismen und Zellkulturen (DSMZ, German Collection of Microorganisms and Cell Cultures). Cultivated tumour cells (CAL-120, human breast adenocarcinoma cells, DSMZ ACC-459; MDA-MB-231, human breast cancer cells, ATCC HTB-26) were plated at a density of 4,000 cells/well in a 96-well multitier plate in 200 microL of their respective growth medium supplemented 10% fetal calf serum. After 24 hours, the cells of one plate (zero-point plate) were stained with crystal violet (see below), while the medium of the other plates was supplemented with the test substances in various concentrations (0 micromol/L, as well as in the range of 0.01-10 micromol/L; the final concentration of the solvent dimethyl sulfoxide was adjusted to 0.1%) using a Tecan HP D300 Digital Dispenser. The cells were incubated for 4 days in the presence of test substances. Cell proliferation was determined by staining the cells with crystal violet: the cells were fixed by adding 20 microL/measuring point of an 11% glutaric aldehyde solution for 15 minutes at room temperature. After three washing cycles of the fixed cells with water, the plates were dried at room temperature. The cells were stained by adding 100 microL/measuring point of a 0.1% crystal violet solution (pH 3.0). After three washing cycles of the stained cells with water, the plates were dried at room temperature. The dye was dissolved by adding 100 microL/measuring point of a 10% acetic acid solution. The extinction was determined by photometry at a wavelength of 595 nm. The change of cell number, in percent, was calculated by normalization of the measured values to the extinction values of the zero-point plate (=0%) and the extinction of the untreated (0 μM) cells (=100%). The IC50 values (inhibitory concentration at 50% of maximal effect) were determined by means of a 4 parameter fit.

In assay [3] the test system is MDA-MB-231, human breast cancer cells. Description: Proliferation assay MDA-MB-231 (crystal violet). The assay is classed as cell-based. The settings on record: 96 h, MDA-MB-231 parental cells, 4 days, median, read-out: Prolif-MDA MB-231, IC50 - [mol/l] (median). As for the experimental part: as §2
Assay [4] concerns BRCA1 mRNA expression in MDA-MB-231 cells. Briefly: qRT-PCR assay: inhibition of BRCA1 mRNA expression in MDA-MB-231 cells. It is filed as cell-based. The settings on record: Homo sapiens, 24 h exposure, BRCA1 normalised to GAPDH, median, read-out: RTqPCR-MDA-MB-231, IC50 [mol/l], BRCA1 (median). As for the experimental part:
3. qRT-PCR Assay: BRCA1, ATR, MCL1 in MDA-MB-231, CAL-120
Tissue cultured human MDA-MB-231 human breast cancer cells were plated in 500 microL per well at 200,000 cells/well in a 24 well microtiter plate. After 24 h, the cells were exposed continuously for 24 h to test substances (substances were added with Tecan HP D300 Dispenser). RNA was prepared using Qiagen RNeasy MiniKit (#74106), RNA was quantified using a NanoDrop Equipment, and 600 nano grams of RNA was converted to cDNA using a SuperScript VILO kit (Thermofisher #11755050) followed by qPCR amplification. BRCA1 and ATR gene expression was measured by RT-qPCR and normalised to GAPDH housekeeping gene expression. qPCR primer sets have been purchased from Thermo Fisher Scientific/Applied Biosystems: BRCA1, #Hs 01556193; ATR. #Hs 00992123: GAPDH. #Hs 03929097.
Background: Real-time PCR tracks product formation cycle by cycle.

For assay [5], the system named is CAL-120-CDK12d-res. Description: Proliferation assay CDK12 degrader resistant CAL-120. The assay is classed as cell-based, human.
Source text: (§3) CDK12-degrader resistant cells were generated by propagation of CAL-120 human breast adenocarcinoma cells (DSMZ ACC-459) and MDA-MB-231 human breast cancer cells (ATCC HTB-26) in presence of increasing concentrations of the CDK12 degrader compound example 4 from WO 2021/116178. Initial concentrations of example 4 were 2.0E-08 M for CAL-120 cells and 4.6E-08 M for MDA-MB-231 cells, corresponding to ca. 2-fold the IC50 of inhibition of the cells in an proliferation assay. After the treated cells recovered and proliferated again the concentration of compound example 4 was increased to 3-fold IC50.
as §2, with “To determine the inhibitory effect of test compounds on proliferation of CAL-120-CDK12d-res, MDA-MB-231-CDK12d-res the” for “Human tumour”, “cells” for “cells were originally obtained from the American Type Culture Collection (ATCC), or from the Deutsche Sammlung von Mikroorganismen und Zellkulturen (DSMZ, German Collection of Microorganisms and Cell Cultures). Cultivated tumour cells (CAL-120, human breast adenocarcinoma cells, DSMZ ACC-459; MDA-MB-231, human breast cancer cells, ATCC HTB-26)”

In assay [6] the test system is MDA-MB-231-CDK12d-res. Description: Proliferation assay CDK12 degrader resistant MDA-MB-231. The assay is classed as cell-based, human.
Source text: as §3
as §2, with “To determine the inhibitory effect of test compounds on proliferation of CAL-120-CDK12d-res, MDA-MB-231-CDK12d-res the” for “Human tumour”, “cells” for “cells were originally obtained from the American Type Culture Collection (ATCC), or from the Deutsche Sammlung von Mikroorganismen und Zellkulturen (DSMZ, German Collection of Microorganisms and Cell Cultures). Cultivated tumour cells (CAL-120, human breast adenocarcinoma cells, DSMZ ACC-459; MDA-MB-231, human breast cancer cells, ATCC HTB-26)”

In assay [7] the test system is CYCLIN K. Description: CYCLIN K nuclear protein level: immunofluorescence/high content analysis in CAL-120 cells. The assay is classed as cell-based, human. The settings on record: 24 h, nuclear CCNK staining intensity, median, read-out: CYCLIN K degradation IF, DC50 - [mol/l] (median). The protocol:
as §1, with “CYCLIN K (ThermoFisher Scientific CCNK” for “CDK12 (CellSignalling CDK12”, “#PA5-85020,” for “#11973,”, “1:200” for “1:100”, “CCNK” for “CDK12”

Sequence of CDK12 (Q9NYV4 whole entry): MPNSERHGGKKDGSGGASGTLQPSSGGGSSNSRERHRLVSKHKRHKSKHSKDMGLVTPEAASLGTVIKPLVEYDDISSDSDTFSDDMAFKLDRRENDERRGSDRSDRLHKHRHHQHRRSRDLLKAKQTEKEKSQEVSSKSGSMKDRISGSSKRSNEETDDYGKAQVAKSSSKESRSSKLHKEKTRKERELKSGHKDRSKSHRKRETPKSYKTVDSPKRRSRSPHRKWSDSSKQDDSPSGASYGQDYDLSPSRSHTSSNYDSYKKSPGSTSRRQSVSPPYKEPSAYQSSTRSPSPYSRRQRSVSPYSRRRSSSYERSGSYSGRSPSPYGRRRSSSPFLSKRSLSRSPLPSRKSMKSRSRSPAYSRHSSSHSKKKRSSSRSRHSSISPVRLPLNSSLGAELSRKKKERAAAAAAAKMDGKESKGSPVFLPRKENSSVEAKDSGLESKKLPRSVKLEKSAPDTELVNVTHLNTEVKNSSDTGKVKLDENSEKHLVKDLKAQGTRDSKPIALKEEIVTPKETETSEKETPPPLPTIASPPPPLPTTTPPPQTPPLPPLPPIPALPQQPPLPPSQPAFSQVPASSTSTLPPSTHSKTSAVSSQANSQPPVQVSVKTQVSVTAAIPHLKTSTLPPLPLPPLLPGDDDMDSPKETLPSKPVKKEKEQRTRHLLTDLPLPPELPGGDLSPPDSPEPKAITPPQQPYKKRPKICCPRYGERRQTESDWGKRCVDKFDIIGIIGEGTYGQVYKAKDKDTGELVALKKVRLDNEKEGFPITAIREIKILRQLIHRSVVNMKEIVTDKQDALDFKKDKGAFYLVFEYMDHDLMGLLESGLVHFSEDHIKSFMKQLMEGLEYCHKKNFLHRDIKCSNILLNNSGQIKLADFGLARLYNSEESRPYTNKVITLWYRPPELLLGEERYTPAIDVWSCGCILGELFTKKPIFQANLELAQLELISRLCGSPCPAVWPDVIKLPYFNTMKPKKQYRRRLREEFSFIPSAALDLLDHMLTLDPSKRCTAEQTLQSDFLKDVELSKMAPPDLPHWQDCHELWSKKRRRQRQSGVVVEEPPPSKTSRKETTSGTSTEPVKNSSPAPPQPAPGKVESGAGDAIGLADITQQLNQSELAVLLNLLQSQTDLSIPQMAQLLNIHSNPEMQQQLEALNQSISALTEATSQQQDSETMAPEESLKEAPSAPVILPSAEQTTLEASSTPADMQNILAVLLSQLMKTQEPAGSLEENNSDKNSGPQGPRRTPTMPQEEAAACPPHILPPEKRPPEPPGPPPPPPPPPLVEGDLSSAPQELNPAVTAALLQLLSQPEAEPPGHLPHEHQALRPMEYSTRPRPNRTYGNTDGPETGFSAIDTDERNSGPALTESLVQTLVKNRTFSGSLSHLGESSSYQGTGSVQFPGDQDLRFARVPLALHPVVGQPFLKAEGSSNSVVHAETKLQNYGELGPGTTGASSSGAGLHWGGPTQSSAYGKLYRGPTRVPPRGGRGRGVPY
Sequence of CDK12 (O75909 whole entry partner): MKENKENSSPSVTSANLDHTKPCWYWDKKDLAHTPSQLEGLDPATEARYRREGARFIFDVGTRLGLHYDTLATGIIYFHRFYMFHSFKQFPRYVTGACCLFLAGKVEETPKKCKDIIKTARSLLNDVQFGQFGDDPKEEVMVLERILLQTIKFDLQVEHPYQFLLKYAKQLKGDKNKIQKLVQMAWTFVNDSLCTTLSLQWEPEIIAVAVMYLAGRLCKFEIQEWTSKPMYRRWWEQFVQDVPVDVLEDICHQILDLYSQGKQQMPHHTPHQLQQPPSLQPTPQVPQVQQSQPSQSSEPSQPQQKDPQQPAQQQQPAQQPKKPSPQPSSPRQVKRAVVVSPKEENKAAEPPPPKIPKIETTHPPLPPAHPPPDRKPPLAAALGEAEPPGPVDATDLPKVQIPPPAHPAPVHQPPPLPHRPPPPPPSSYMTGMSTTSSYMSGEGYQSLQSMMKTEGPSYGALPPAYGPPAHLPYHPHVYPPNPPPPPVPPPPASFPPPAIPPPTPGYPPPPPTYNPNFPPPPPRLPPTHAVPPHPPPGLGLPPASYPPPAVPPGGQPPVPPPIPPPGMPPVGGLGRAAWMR

`COc1ccc(-c2cnc(CNc3nc(N4CCOCC4)nn4c(C(F)(F)F)cnc34)[nH]2)cc1` [Example 13, N-{[5-(4-methoxyphenyl)-1H-imidazol-2-yl]methyl}-2-(morpholin-4-yl)-7-(trifluoromethyl)imidazo[2,1-f][1,2,4]triazin-4-amine]: the DC50 in assay [1] worked out at 120 nM. Further, the IC50 in assay [2] is 29.2 nM; in assay [3], 85.9 nM; in assay [4], 57.1 nM.
On to `FC(F)(F)c1ccc(-c2nnc(CNc3nc(N4CCOCC4)nc4c(C(F)(F)F)cnn34)[nH]2)cn1` [Example 16, 2-(morpholin-4-yl)-8-(trifluoromethyl)-N-({5-[6-(trifluoromethyl)pyridin-3-yl]-4H-1,2,4-triazol-3-yl}methyl)pyrazolo[1,5-a][1,3,5]triazin-4-amine], for which, in assay [1], the DC50 is > 1000 nM. Moreover, the IC50 in assay [2] came out at 211 nM; in assay [3], 179 nM.
As for `FC(F)(F)Oc1ccc(-c2nnc(CNc3nc(N4CCOCC4)nc4c(C(F)(F)F)cnn34)[nH]2)cn1` [Example 17, 2-(morpholin-4-yl)-N-({5-[6-(trifluoromethoxy)pyridin-3-yl]-4H-1,2,4-triazol-3-yl}methyl)-8-(trifluoromethyl)pyrazolo[1,5-a][1,3,5]triazin-4-amine], the DC50 in assay [1] and in assay [7] was > 1000 nM each time. Besides, the IC50 in assay [2] amounted to 88.1 nM; in assay [3], 112 nM; in assay [5] (Homo sapiens, 96 h, CDK12 degrader resistant CAL-120 cells, 4 days, median, read-out: Prolif-CAL-120-CDK12d-res, IC50 - [mol/l] (median)), 134 nM; in assay [6] (Homo sapiens, 96 h, CDK12 degrader resistant MDA-MB-231 cells, 4 days, median, read-out: Prolif-MDA MB-231-CDK12d-res, IC50 - [mol/] (median)) it was 156 nM. Moreover, the “Ratio (Prolif-CAL-120-CDK12d-res IC50 / Prolif-CAL-120 IC50)” value in assay [5] (resistant versus parental CAL-120 cells) stood at 1.5. Also, the “Ratio (Prolif-MDA MB-231-CDK12d-res IC50 / Prolif-MDA MB-231 IC50)” value in assay [6] (resistant versus parental MDA-MB-231 cells) was 1.4.
